From patent US12522614B2, “Topical phosphoinositide 3-kinase inhibitors” (VENTHERA, INC., priority 2019, dated 2026) come the findings set out here.

The structures appear in SMILES notation.

A short description of series [1]: In vitro human skin permeation study of topical gel formulations (Franz diffusion cells). Format: in vitro ADME. The settings on record: saturated gel formulations, skin flux experiments. From the text: The gel formulation of Example 8 was used as the donor phase to determine the permeation of Compound 1.002 through human skin and its effectiveness as a topical application. Three skin donors and three diffusion cells (for each donor) per formulation were used in the in vitro skin permeation experiments. Split thickness dermatomed (approximately at […] thickness) human cadaver skin, supplied by New York Firefighters Skin Bank, NY, was used to determine the permeation rate of the tested compound (i.e., the drug) in vitro. All in vitro skin permeation studies were conducted using the Vertical Diffusion Cells assembly with consoles (Model FDC-6), and heating controllers (Logan Instruments Inc. Somerset, NJ). Each assembly consisted of six vertical, jacketed (37° C.±0.5° C.) 12-mL Franz diffusion cells with magnetic stirrer and 1.767 cm^2 diffusion area.
Skin flux studies were run for a period of 48 hours. At predetermined intervals (2, 4, 8, 24 and 48 hours) after starting the experiment, the entire contents of the receiver compartment were collected for determining concentrations of the drug by HPLC. The receiver compartment was refilled with fresh receiver medium. The receiver medium was pH 7.4 phosphate buffer with 0.5 mg/ml of Oleath 20 with the saturation concentration of the drug in the receptor medium being 0.152 mg/ml. This solubility of the drug in the receiver medium was enough to ensure sink conditions throughout each collection interval.
Samples of the receptor phase were obtained at 2, 4, 8, 12, 24 and 48 h and concentrations of Compound 1.002 and 3-(4-morpholinothieno(3,2-d)pyrimidin-2-yl)phenol (metabolite of Compound 1.002, abbreviated as MTPP) were determined using a validated HPLC method. The metabolism of Compound 1.002 to MTPP takes place in the human skin by esterase enzymes.
HPLC method: Column—Gemini C-18 4.6×150 mm, 5 μm particle size; Mobile Phase—water:acetonitrile 25:75 containing 0.1% TFA; Flow Rate—1 mL/min; Detection—274 nm; Column Temperature—40° C.; and Run Time—10 min. The retention times for MTPP and Compound 1.002 were 3.9 and 7.2 minutes, respectively.
The skin flux of drugs and cumulative amount of drugs permeated (sum of MTPP and Compound 1.002) for a period of 48 hours were calculated and are shown in Table 3. FIG. 3 represents a plot of Cumulative amount permeated versus time.

Assay in series [2]: as above
Format: in vitro ADME. The conditions noted are these: Study-4, saturated gel, human skin.

Series [3] in a line: Accelerated stability study of topical gel formulations at 80° C. Type of series: physicochemical. The conditions noted are these: gel formulation, 3 days.
Assay in series [4]: as above
The settings on record: for Stability in gel formulation: 80° C. for 10 days; for percent hydrolysis to the parent compound MTPP: gel formulation, 80° C. Format: physicochemical. How it is done:
Topical gel formulations were prepared using excipients as shown in Table 2 according to Example 8, in which Compounds 1.002, 1.012, and 1.006 were used as the active ingredient, respectively. These gel formulations were subjected to stability study at 80° C. for 10 days. Stability under the condition of at 80° C. for 10 days is expected to be approximately equivalent to the stability for three (3) years at room temperature. A relative purity of the tested compound after being exposed for 5 days and 10 days at 80° C. was determined by HPLC, as compared to its initial purity (at day 0).
The values shown in the table are percent hydrolysis of the respective compounds to the parent compound MTPP.
Topical gel formulations of Compound 1.002 were prepared using excipients as shown in Table 2 according to Example 8, in which the content of oleic acid varied at 1%, 2%, 5%, and 10%, respectively. These gel formulations were subjected to stability study at 80° C. for 10 days, which is expected to be approximately equivalent to the stability for three (3) years at room temperature. A purity of the tested compound on day 0, 5, 7, and 10 at 80° C. was determined by HPLC. The detected impurity of the tested compound appears to be the hydrolysis product, as MTPP. Table 17 represents stability data of Compound 1.002 in topical formulations having oleic acid at various contents.
Gel formulations of Example 17 were subjected to stability study at 80° C. for 10 days. Stability under the condition of at 80° C. for 10 days is expected to be approximately equivalent to the stability for three (3) years at room temperature. A relative purity of Compound 1.002 after being exposed for 5 days and 10 days at 80° C. was determined by HPLC, as compared to its initial purity (at day 0).

In series [5] the target is T1, PI3K (p110a(E542K)/p85a) (Homo sapiens, UniProt P42336, E542K).
T1 construct: purchased Reaction Biology Corporation (RBC)
Put plainly: Lipid kinase inhibitory activity, ADP-Glo. Type of series: biochemical. The conditions noted are these: α E542K. How it is done:
(§1) Lipid kinases: Lipid kinases from Reaction Biology Corporation (RBC) in ADP-Glo format were used.
(§2) Assay Description: The kinase reactions utilized ATP and produced ADP as a byproduct. The ADP production was quantified by ADP-Glo luminescence detection. This assay was a 3-step reaction. First, the kinase reaction with lipid substrate was carried out in the presence of ATP, and the reaction was quenched and depleted remaining ATP with ADP-Glo™ reagent, and then finally ADP was converted to ATP which was measured using a luciferase/luciferin reaction.
(§3) Assay Procedure: The assay was performed according to the steps as follows: • 1. Preparing substrate in freshly prepared reaction buffer; • 2. Delivering kinase into the substrate solution and gently mixing; • 3. Delivering compounds in […] into the kinase reaction mixture by Acoustic technology (Echo550; nanoliter range), incubating for 20 minutes at room temperature; • 4. Delivering ATP into the reaction mixture to initiate the reaction; • 5. Incubating for 30 minutes at 30° C.; • 6. Quenching the reaction with ADP-Glo reagent and incubating for 40 minutes; • 7. Adding Detection Mixture and incubating for 30 minutes; and • 8. Measuring luminescence.
(§4) Data Analysis: The luminescence was converted into μM ADP production based on ADP standard curves. The nonlinear regression to obtain the standard curve and IC50 values were performed using Graphpad Prism software.
In general terms: ADP-Glo turns the ADP formed in a reaction into a luminescent signal.

In series [6] the target is T2, PI3Kg (p110g) (Homo sapiens, UniProt P48736).
T2 construct: purchased Reaction Biology Corporation (RBC)
Put plainly: Lipid kinase inhibitory activity, ADP-Glo. Format: biochemical. The conditions noted are these: γ. How it is done: as §1, §2, §3, §4

Series [7] deals with T3, PI3K (p110a(E545K)/p85a) (Homo sapiens, UniProt P42336, E545K).
T3 construct: purchased Reaction Biology Corporation (RBC)
Put plainly: Lipid kinase inhibitory activity, ADP-Glo. Type of series: biochemical. The conditions noted are these: α E545K. How it is done:
as §1, §2, §3, §4

In series [8] the target is T4, PI3K (p110a(H1047R)/p85a) (Homo sapiens, UniProt P42336, H1047R).
T4 construct: purchased Reaction Biology Corporation (RBC)
Put plainly: Lipid kinase inhibitory activity, ADP-Glo. Type of series: biochemical. The settings on record: α H1047R. How it is done:
as §1, §2, §3, §4

The target in series [9] is T5, PI3Kb (p110b/p85a) (Homo sapiens, UniProt P42338).
T5 construct: purchased Reaction Biology Corporation (RBC)
As to the kind of experiment: Lipid kinase inhibitory activity, ADP-Glo. The settings on record: β. Format: biochemical. How it is done:
as §1, §2, §3, §4

In series [10] the target is T6, PI3Ka (p110a/p85a) (Homo sapiens, UniProt P42336).
T6 construct: purchased Reaction Biology Corporation (RBC)
As to the kind of experiment: Lipid kinase inhibitory activity, ADP-Glo. The conditions noted are these: α. Format: biochemical. How it is done: as §1, §2, §3, §4

Series [11] addresses T7, MTOR/FRAP1 (Homo sapiens, UniProt P42345).
T7 construct: purchased Reaction Biology Corporation (RBC)
As to the kind of experiment: Lipid kinase inhibitory activity, ADP-Glo. Format: biochemical. How it is done:
as §1, §2, §3, §4

Series [12] deals with T8, PI3Kd (p110d/p85a) (Homo sapiens, UniProt O00329).
T8 construct: purchased Reaction Biology Corporation (RBC)
As to the kind of experiment: Lipid kinase inhibitory activity, ADP-Glo. The settings on record: δ. Type of series: biochemical. How it is done: as §1, §2, §3, §4

T3 sequence (P42336 whole entry E545K): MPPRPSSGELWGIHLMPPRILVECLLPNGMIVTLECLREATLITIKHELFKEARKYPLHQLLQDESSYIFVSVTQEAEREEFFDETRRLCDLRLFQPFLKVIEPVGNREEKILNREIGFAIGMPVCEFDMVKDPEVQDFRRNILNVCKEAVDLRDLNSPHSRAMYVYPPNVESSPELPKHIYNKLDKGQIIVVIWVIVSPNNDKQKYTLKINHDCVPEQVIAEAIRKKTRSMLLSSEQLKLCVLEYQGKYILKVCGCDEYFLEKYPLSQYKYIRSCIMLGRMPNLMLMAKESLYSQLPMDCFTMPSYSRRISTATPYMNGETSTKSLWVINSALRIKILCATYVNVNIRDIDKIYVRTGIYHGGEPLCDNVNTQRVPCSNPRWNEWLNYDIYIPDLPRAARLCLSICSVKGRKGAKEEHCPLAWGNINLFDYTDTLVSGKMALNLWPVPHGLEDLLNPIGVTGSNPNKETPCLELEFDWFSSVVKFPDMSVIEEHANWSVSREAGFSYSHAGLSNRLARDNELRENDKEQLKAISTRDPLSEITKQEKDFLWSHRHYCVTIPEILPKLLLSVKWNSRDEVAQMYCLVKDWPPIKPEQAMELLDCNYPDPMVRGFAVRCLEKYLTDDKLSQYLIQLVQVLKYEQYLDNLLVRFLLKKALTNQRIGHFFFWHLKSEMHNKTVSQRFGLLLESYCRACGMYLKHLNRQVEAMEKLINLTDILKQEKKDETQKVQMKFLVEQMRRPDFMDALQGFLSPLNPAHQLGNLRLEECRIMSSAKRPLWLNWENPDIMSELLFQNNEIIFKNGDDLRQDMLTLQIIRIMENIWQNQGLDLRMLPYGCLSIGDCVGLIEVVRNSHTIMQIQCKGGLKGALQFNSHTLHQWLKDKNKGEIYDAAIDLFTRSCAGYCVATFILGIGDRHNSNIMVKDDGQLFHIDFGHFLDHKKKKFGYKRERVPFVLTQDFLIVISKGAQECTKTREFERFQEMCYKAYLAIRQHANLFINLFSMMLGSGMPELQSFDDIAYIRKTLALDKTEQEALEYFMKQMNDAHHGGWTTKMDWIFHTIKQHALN
T3 sequence (P27986 whole entry partner): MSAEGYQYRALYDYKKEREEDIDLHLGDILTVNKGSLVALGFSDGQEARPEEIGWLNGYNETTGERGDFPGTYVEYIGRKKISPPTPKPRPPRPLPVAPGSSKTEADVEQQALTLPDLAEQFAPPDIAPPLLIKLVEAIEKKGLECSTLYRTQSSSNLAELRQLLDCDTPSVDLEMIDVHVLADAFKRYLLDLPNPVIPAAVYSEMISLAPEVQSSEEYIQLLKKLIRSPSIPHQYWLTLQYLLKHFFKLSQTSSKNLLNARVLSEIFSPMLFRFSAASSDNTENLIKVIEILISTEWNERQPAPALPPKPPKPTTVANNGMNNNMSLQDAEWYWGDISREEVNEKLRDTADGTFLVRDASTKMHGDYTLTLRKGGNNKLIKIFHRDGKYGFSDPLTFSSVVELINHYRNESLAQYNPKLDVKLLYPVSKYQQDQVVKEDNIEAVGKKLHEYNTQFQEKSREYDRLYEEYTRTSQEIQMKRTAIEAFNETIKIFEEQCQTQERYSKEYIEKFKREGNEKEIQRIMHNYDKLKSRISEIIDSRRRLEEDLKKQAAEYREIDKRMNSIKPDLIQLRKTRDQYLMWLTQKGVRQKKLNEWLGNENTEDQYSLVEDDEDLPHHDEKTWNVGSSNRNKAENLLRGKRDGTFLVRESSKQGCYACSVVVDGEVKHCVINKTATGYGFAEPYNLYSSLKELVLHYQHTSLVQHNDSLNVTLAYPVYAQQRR
T2 sequence (P48736 whole entry): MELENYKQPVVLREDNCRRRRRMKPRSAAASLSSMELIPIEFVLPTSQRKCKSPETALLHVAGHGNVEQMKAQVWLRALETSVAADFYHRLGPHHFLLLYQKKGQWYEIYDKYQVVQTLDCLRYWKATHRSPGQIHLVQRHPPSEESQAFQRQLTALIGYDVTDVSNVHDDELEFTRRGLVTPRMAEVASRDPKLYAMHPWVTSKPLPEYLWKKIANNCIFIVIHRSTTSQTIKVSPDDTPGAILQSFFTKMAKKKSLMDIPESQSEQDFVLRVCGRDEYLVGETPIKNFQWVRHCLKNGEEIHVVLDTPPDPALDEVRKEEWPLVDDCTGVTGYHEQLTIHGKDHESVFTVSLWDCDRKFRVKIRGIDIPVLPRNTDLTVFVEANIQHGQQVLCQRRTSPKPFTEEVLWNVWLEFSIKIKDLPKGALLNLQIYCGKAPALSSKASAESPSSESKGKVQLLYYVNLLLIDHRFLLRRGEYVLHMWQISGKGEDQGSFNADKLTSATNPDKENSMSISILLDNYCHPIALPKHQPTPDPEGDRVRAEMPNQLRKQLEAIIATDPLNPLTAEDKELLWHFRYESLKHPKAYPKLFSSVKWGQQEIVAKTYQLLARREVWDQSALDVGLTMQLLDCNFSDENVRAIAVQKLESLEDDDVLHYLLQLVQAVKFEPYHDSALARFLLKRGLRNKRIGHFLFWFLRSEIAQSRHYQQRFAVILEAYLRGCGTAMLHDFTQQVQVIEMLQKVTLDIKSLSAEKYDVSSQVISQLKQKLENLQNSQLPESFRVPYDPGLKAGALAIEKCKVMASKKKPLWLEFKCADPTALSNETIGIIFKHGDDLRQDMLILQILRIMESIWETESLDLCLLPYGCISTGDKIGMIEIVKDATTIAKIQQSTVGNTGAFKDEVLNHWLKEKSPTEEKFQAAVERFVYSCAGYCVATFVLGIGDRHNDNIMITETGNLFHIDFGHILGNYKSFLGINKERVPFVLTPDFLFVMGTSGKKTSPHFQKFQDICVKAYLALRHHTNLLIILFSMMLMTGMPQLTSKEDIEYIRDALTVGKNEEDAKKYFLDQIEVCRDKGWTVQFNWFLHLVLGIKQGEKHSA
T8 sequence (O00329 whole entry): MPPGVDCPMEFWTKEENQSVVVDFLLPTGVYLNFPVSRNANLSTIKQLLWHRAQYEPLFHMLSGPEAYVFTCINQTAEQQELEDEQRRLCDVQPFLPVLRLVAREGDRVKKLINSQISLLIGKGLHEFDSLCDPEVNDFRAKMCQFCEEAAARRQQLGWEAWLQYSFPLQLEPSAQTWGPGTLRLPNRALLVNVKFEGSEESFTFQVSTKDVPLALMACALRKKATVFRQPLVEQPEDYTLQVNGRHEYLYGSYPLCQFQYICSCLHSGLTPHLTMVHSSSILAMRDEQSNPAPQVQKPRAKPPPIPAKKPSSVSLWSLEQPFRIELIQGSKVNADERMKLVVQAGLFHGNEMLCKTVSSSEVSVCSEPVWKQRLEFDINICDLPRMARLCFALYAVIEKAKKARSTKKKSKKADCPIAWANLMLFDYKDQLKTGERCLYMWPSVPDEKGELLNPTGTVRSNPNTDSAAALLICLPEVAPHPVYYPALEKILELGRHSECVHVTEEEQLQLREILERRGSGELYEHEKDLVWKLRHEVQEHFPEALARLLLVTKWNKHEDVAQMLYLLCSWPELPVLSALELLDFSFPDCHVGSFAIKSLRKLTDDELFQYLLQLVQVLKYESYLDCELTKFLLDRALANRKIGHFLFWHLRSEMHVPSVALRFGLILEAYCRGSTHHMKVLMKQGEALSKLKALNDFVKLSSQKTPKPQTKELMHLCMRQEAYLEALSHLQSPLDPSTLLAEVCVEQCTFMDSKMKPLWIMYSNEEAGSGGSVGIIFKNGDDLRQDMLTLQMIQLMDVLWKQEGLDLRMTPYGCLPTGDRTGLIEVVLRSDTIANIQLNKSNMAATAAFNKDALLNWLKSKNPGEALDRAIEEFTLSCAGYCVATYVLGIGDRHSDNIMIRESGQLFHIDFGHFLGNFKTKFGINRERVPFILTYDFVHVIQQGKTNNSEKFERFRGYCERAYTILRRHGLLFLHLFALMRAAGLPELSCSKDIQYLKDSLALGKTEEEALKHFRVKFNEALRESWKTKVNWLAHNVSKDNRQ
T8 sequence (P27986 whole entry partner): as the sequence (P27986 whole entry partner) above
T5 sequence (P42338 whole entry): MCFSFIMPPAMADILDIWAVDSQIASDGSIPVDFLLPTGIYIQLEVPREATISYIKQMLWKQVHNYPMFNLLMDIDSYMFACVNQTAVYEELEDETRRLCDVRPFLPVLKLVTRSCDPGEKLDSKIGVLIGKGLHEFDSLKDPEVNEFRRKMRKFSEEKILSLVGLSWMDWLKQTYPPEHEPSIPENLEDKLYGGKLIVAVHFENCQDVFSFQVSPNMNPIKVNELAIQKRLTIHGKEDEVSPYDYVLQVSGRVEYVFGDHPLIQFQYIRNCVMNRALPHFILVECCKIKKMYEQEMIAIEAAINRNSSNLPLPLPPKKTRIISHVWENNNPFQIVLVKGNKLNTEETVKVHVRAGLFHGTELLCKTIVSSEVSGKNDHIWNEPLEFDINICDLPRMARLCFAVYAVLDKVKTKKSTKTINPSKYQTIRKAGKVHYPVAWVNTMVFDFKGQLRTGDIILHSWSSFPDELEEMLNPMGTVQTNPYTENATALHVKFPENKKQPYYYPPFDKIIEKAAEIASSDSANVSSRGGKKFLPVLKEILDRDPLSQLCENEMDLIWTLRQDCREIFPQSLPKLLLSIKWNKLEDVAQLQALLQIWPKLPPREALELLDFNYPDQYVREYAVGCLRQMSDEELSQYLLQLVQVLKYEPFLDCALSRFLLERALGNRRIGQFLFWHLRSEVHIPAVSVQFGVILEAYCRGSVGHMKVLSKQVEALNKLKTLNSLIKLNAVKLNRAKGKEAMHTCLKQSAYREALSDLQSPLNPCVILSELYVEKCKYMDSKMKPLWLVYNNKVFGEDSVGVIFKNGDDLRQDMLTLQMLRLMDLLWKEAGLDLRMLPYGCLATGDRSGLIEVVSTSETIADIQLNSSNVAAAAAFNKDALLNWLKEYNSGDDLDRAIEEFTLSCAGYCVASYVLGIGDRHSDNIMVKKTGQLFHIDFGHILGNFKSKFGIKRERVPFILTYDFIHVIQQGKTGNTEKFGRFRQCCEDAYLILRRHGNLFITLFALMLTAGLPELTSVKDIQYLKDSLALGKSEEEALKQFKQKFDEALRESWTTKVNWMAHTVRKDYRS
T5 sequence (P27986 whole entry partner): as the sequence (P27986 whole entry partner) above

With `COc1cccc(-c2nc(N3CCOCC3)c3sccc3n2)c1` [Compound 1.001, 4-(2-(3-Methoxyphenyl)thieno[3,2-d]pyrimidin-4-yl)morpholine], the “Metabolism to MTPP during permeation through human skin” value in series [1] is given as “appeared not to metabolize to MTPP”. Also, the “Cumulative permeation (intact compound)” value amounted to 0.0 μg/cm^2 in [2] (2 h); 10.2 μg/cm^2 in series [2] (4 h); 51.8 μg/cm^2 in [2] (8 h); 202.1 μg/cm^2 in series [2] (24 h); 260.4 μg/cm^2 in series [2] (48 h). Moreover, the “Hydrolysis of Cmpd. 1.001 to MTPP” value in series [2] (2 h), in [2] (4 h), in series [2] (8 h), in [2] (24 h) and in series [2] (48 h) was 0.0 each time.

With `CCCCCCCCCC(=O)Oc1cccc(-c2nc(N3CCOCC3)c3sccc3n2)c1` [Compound 1.008, 3-(4-Morpholinothieno[3,2-d]pyrimidin-2-yl)phenyl Decanoate], the “percent hydrolysis to the parent compound MTPP” value (from here on “percent hydrolysis”) in [3] came to 0.20%; in series [4] (0 days) it was 0.00%; in [4] (5 days), 0.28%; in series [4] (7 days), 0.39%; in series [4] (10 days), 0.56%. Moreover, the “Stability in gel formulation” value in [4] was “very stable”.

As for `CCCCCCCC/C=C\CCCCCCCC(=O)Oc1cccc(-c2nc(N3CCOCC3)c3sccc3n2)c1` [Compound 1.011, 3-(4-Morpholinothieno[3,2-d]pyrimidin-2-yl)phenyl Oleate], the “percent hydrolysis” value in [3] was found to be 0.18%; in [4] (0 days) it was 0.09%; in series [4] (5 days), 0.24%; in series [4] (7 days), 0.33%; in series [4] (10 days) it was 0.43%. Moreover, the “Stability in gel formulation” value in [4] is reported as “very stable”.

On to `O=C(/C=C/c1ccccc1)Oc1cccc(-c2nc(N3CCOCC3)c3sccc3n2)c1` [Compound 1.014, 3-(4-Morpholinothieno[3,2-d]pyrimidin-2-yl)phenyl Cinnamate], for which the “percent hydrolysis” value was 1.32% in series [3]; 0.00% in series [4] (0 days); 2.09% in [4] (5 days); 2.43% in [4] (7 days); 2.94% in [4] (10 days). Moreover, the “Stability in gel formulation” value in series [4] was “very stable”.

Turning to `CC(=O)OCc1cccc(-c2nc(N3CCOCC3)c3sccc3n2)c1` [Compound 1.015, 3-(4-Morpholinothieno[3,2-d]pyrimidin-2-yl)benzyl acetate], the half-maximal inhibitory concentration (IC50) (in general, the concentration that gives 50% inhibition) in [5] came out at 3690 nM; in [6], 131 nM; in series [7] it was 4310 nM; in series [8] it was 3110 nM; in [9], 5590 nM; in series [10], 1930 nM. Moreover, the results for the IC50 in series [11] and in [12] were 3320 nM and 714 nM, respectively.

Turning to `OCc1cccc(-c2nc(N3CCOCC3)c3sccc3n2)c1` [MTPPM, (3-(4-morpholinothieno[3,2-d]pyrimidin-2-yl)phenyl)methanol, reference compound], the IC50 in [5] came out at 9 nM; in series [6], 61 nM; in series [7], 9.8 nM; in [8], 7.8 nM; in [9], 56 nM; in [10], 7 nM. Also, the IC50 amounted to 113 nM in series [11] and 17 nM in series [12].
